Data published in patent publication US5270457A, “Cardiac steriod glycosides” (University of Manitoba, priority 1992, dated 1993).
Structures can show the parent of a compound that is named as a salt.

Biological target: Na/K-ATPase
Test: 3H-ouabain radioligand binding assay (RBA)
Settings: for IC50: 3H-ouabain radioligand binding assay (RBA)
Excerpt: The potency of steroids to displace the labelled cardiac glycoside (i.e. ouabain) in the assay parallel their biological activity, that is their cardiac glycoside-like activity, in their ability to inhibit Na/K-ATPase and elicit characteristic cellular response.

Compound	IC50 [nM]	IC50 (unit printed 'nm') [nM]	potency compared with Example 1 and Example 4 (comparison of IC50 values, in words)
C[C@@H]1O[C@@H](O[C@H]2CC[C@@]3(C)[C@H](CC[C@@H]4[C@@H]3CC[C@]3(C)[C@@H](CN)CC[C@]43O)C2)[C@H](O)[C@H](O)[C@H]1O [Example 1, 14-Hydroxy-3β-(α-L-rhamnopyranosyl)oxy-20-amino-21-nor-5β14β-pregnane hydrochloride]	60	60	
C[C@@H]1O[C@@H](O[C@H]2CC[C@@]3(C)[C@H](CC[C@@H]4[C@@H]3CC[C@]3(C)[C@@H](C[N+](=O)[O-])CC[C@]43O)C2)[C@H](O)[C@H](O)[C@H]1O [Example 2, 14-Hydroxy-3β-(α-L-rhamnopyranosyl)oxy-20-nitro-21-nor-5β,14β-pregnane]	11	11	significantly greater than exhibited by the corresponding amino derivative (Example 1) and tridigitoxosyl derivative (Example 4)
CC1OC(OC2C(O)CC(OC3C(O)CC(OC4CCC5(C)C(CCC6C5CCC5(C)C(CN)CCC65O)C4)OC3C)OC2C)CC(O)C1O [Example 3, 14-Hydroxy-3β-(tris-β-D-digitoxosyl)oxy-20-amine-21-nor-5β,14β-pregnane]	400		
CC1OC(OC2C(O)CC(OC3C(O)CC(OC4CCC5(C)C(CCC6C5CCC5(C)C(C[N+](=O)[O-])CCC65O)C4)OC3C)OC2C)CC(O)C1O [Example 4, 14-Hydroxy-3 β-(tris-β-D-digitoxosyl)oxy-20-nitro-21-nor-5β,14β-pregnane]	60		
